Reference: EP4537820A1, “COMPOUND AND COMBINATIONS COMPRISING SAID COMPOUND TO IMPROVE IMMUNE RESPONSE” (Institut Gustave-Roussy, priority 2023, dated 2025)

How the values were obtained:
20S-REGγ complex = biological target: T1, 20S-REGγ complex (Homo sapiens, UniProt P61289); experiment: First confirmatory counter-screen of hits, fluorescence kinetic proteasome activity test; type: biochemical; settings: counter-screen at 10, 20 and 40µM, 90min kinetic assay
T1 construct: purchased Biotechne E-360-050 (20S); E-384-MTO (REGγ); host or cells: 20S from human erythrocytes
Procedure: The 3 chemical libraries tested were obtained from the NIH : The Natural Products set (NP.V) consisting of 390 compounds, the Oncology Approved Drugs set (AOD.IX) consisting of 147 FDA-approved compounds and the Diversity set (DIV.VI) consisting of 1584 compounds. Libraries were prepared and screened with a Biomek FXP workstation in 384 well plates. Compounds activity was assessed using a fluorescence activity test of the proteasome using the Bz-VGR-AMC fluorogenic substrate (#BML-BW9375-0005, Enzo Life Sciences). […] After preparation of the mix, plates were incubated for 2h at 37°C before being read on a Spectramax i3 microplate reader from Molecular devices (Excitation wavelength : 345nm; Emission wavelength : 445nm). […]
After QC verification, each plate was normalized to the mean of the VGR control. For every quadruplicate the most different value from the mean was eliminated and the fluorescence mean for each compound was calculated on the 3 remaining values. The percentage of inhibition of a compound was calculated according to, as follows : %Inhibition(compound) = (MeanREG,plate −Meancompound)/(MeanREG,plate −Mean20S,plate) × 100, [formula] for the condition with REG[…]. […]
(§1) After conducting the screening and validating the quality control using a custom algorithm, they analyzed the data to select their hits. […]

20S proteasome [1] = test system: T2, 20S proteasome; experiment: Thermal Shift Assay (nanoDSF) with 20S; type: binding, human; settings: 20S 50nM, compound at 100X (5µM, 0,1% DMSO)
T2 construct: purified 20S proteasome from human erythrocytes; purchased Biotechne E-360-050; host or cells: human erythrocytes
Procedure: Thermal shift assay was carried out with nano differential scanning fluorimetry (nanoDSF) using the Tycho NT.6 from Nanotemper and was performed at the I2BC platform (Gif-sur-Yvette). Samples were prepared in a final volume of 25µL in a 96-well plate prior to be loaded on the Tycho capillaries. Proteins were diluted in activity buffer (20mM Tris-HCl pH 7.4 and 20mM NaCl). After optimisation, REGγ concentration was set to 500nM and 20S concentration to 50nM. Compounds concentrations were determined as ratios to protein concentration and to stay below 0,5% of DMSO; accordingly, compounds with REGγ were tested at 40X (20µM, 0,4% DMSO) and at 100X (5µM, 0,1% DMSO) with 20S. A thermal ramp was applied from 20 to 95°C and fluorescence was followed at 350nm and 330 nm, measuring intrinsic fluorescence of the proteins from tryptophan and tyrosine residues. Binding was detected as a shift in the inflection temperature (Ti) compared to the DMSO control.
To assess the efficacy of molecule 58 in directly binding to REGγ, inventors conducted a thermal shift assay (TSA). TSA leverages the property of proteins to undergo unfolding at specific temperatures, and the interaction with a ligand can alter the thermal stability, leading to a shift in the unfolding temperature. In their study, inventors examined how the compound 58 interacted with REGγ and monitored the change in melting temperature (ΔTm).

20S-REGy complex = 20S-REGy complex (Homo sapiens, UniProt P61289); experiment: Peptide degradation assay with Fluorescamine (KH-52), with REGγ; type: biochemical; settings: 20S-REGγ complex, 50 µM compound, 37°C
Procedure: Degradation of the 52 amino acid peptide KH-52: […], Boulpicante et al.) by the 20S proteasome was followed by amino-acid group generation using Fluorescamine (#F9015, Sigma-Aldrich). The peptide substrate was incubated at 100µM with 25nM 20S, with or without 160nM REGγ and with different concentration of the tested compounds or DMSO. Assays were performed in 100µL in phosphate buffer (pH 6.8) and incubated at 37°C in a water bath for 8 hours. After 4, 6 and 8 hours, 22µL of sample were retrieved and added to 88µL of phosphate buffer before being stored at - 20°C prior to revelation. For the revelation, samples were thawed and filtered in a centrifuge 20min at 4°C 1kDa filters (#OD003C34, Pall Corporation). To avoid any amino group contamination, filtered were washed in phosphate buffer before use. 20µL of filtered-sample were plated in triplicates in a black 96-wells plate (#237108, Thermo Scientific) and 10µL of fluorescamine (1mg/mL, in 100% acetone) was added to the samples. The plate was placed on agitation for 1min before the reaction was stopped by adding 200µL of water to each well. The fluorescence intensity was measured using a FluoSTAR plate reader (BMG Labtech) with excitation wavelength at 355nm and emission wavelength at 460nm.
These findings were established through both in vitro degradation assays and T cell experiments. […]

20S proteasome [2] = test system: T2, 20S proteasome; experiment: Second confirmatory counter-screen of hits on the proteasome alone; type: biochemical, human; settings: counter-screen on 20S proteasome only, without REGγ
Procedure: The 3 chemical libraries tested were obtained from the NIH : The Natural Products set (NP.V) consisting of 390 compounds, the Oncology Approved Drugs set (AOD.IX) consisting of 147 FDA-approved compounds and the Diversity set (DIV.VI) consisting of 1584 compounds. Libraries were prepared and screened with a Biomek FXP workstation in 384 well plates. Compounds activity was assessed using a fluorescence activity test of the proteasome using the Bz-VGR-AMC fluorogenic substrate (#BML-BW9375-0005, Enzo Life Sciences). 50µM of the fluorogenic substrate was used with 20µM of the tested compound, and 2nM of 20S human proteasome (#E-360-050, Biotechne) in presence or absence of 50nM of human REGγ (#E-384-MTO, Biotechne). After preparation of the mix, plates were incubated for 2h at 37°C before being read on a Spectramax i3 microplate reader from Molecular devices (Excitation wavelength : 345nm; Emission wavelength : 445nm). […]
Using the control condition without REGγ, they then eliminated compounds that were inhibiting the 20S proteasome, using the 95% interval of confidence of the 20S control for each plate. […] Fluorescence was measured every minute with a FLUOstar plate reader (BMG Labtech). […]
as §1

T1 sequence (P61289 whole entry, one chain of several): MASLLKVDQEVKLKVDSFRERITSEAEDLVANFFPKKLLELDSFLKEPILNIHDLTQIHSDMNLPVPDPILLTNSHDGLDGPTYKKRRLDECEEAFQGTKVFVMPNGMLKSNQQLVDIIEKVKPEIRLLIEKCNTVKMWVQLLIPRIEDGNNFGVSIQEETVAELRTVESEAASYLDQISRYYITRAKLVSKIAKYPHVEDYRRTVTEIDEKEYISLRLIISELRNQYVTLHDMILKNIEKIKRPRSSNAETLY
Chain of 20S-REGy complex (P61289 whole entry, one chain of several): as above

change in melting temperature (ΔTm) (20S proteasome [1]): no significant change in ΔTm
inhibition of the 20S core alone (20S proteasome [2]): without inhibiting the 20S core alone
Compound: Cc1ccc(N=Nc2ccc(C)cc2NC(=O)Nc2ccccc2F)cc1 [compound 58]
inhibition of the effect of REGγ on proteasomal protein degradation (20S-REGγ complex): inhibit the effect of REGγ on proteasomal protein degradation
rate of peptide bond hydrolysis of KH-52 (20S-REGy complex): notably decelerated the rate of peptide bond hydrolysis
